Assay: Stability of QC samples in rat plasma and tissue homogenates under different storage conditions
Assay type: in vitro ADME
Settings: in % (unit assumed)

O=C(/C=C/c1ccc(O)c(O)c1)O[C@@H]1C[C@](O)(C(=O)O)C[C@@H](O)[C@H]1O [Chlorogenic acid]
Accuracy, Ambient temperature for 4 h (Brain, 2 ng/mL): 110.33 ± 7.55
Accuracy, Three freeze-thraw cycles (Brain, 2 ng/mL): 105.65 ± 10.92
Accuracy, −80°C for 30 days (Brain, 2 ng/mL): 90.73 ± 10.25
Accuracy, Ambient temperature for 4 h (Brain, 4 ng/mL): 89.12 ± 9.00
Accuracy, Three freeze-thraw cycles (Brain, 4 ng/mL): 90.68 ± 10.51
Accuracy, −80°C for 30 days (Brain, 4 ng/mL): 105.32 ± 9.72
Accuracy, Ambient temperature for 4 h (Brain, 100 ng/mL): 91.93 ± 9.93
Accuracy, Three freeze-thraw cycles (Brain, 100 ng/mL): 108.13 ± 9.91
Accuracy, −80°C for 30 days (Brain, 100 ng/mL): 105.48 ± 6.92
Accuracy, Ambient temperature for 4 h (Brain, 2400 ng/mL): 102.93 ± 5.79
Accuracy, Three freeze-thraw cycles (Brain, 2400 ng/mL): 96.57 ± 10.12
Accuracy, −80°C for 30 days (Brain, 2400 ng/mL): 97.98 ± 9.56
Accuracy, Ambient temperature for 4 h (Heart, 2 ng/mL): 102.73 ± 12.98
Accuracy, Three freeze-thraw cycles (Heart, 2 ng/mL): 91.72 ± 6.33
Accuracy, −80°C for 30 days (Heart, 2 ng/mL): 88.98 ± 5.73
Accuracy, Ambient temperature for 4 h (Heart, 4 ng/mL): 96.88 ± 11.06
Accuracy, Three freeze-thraw cycles (Heart, 4 ng/mL): 99.03 ± 10.17
Accuracy, −80°C for 30 days (Heart, 4 ng/mL): 102.27 ± 10.30
Accuracy, Ambient temperature for 4 h (Heart, 100 ng/mL): 112.83 ± 9.11
Accuracy, Three freeze-thraw cycles (Heart, 100 ng/mL): 111.00 ± 7.72
Accuracy, −80°C for 30 days (Heart, 100 ng/mL): 112.62 ± 8.15
Accuracy, Ambient temperature for 4 h (Heart, 2400 ng/mL): 108.60 ± 8.41
Accuracy, Three freeze-thraw cycles (Heart, 2400 ng/mL): 110.55 ± 8.11
Accuracy, −80°C for 30 days (Heart, 2400 ng/mL): 104.85 ± 10.69
Accuracy, Ambient temperature for 4 h (Kidney, 2 ng/mL): 110.07 ± 7.34
Accuracy, Three freeze-thraw cycles (Kidney, 2 ng/mL): 97.22 ± 7.67
Accuracy, −80°C for 30 days (Kidney, 2 ng/mL): 89.87 ± 9.23
Accuracy, Ambient temperature for 4 h (Kidney, 4 ng/mL): 87.63 ± 7.76
Accuracy, Three freeze-thraw cycles (Kidney, 4 ng/mL): 87.60 ± 9.26
Accuracy, −80°C for 30 days (Kidney, 4 ng/mL): 89.60 ± 9.05
Accuracy, Ambient temperature for 4 h (Kidney, 100 ng/mL): 112.00 ± 7.01
Accuracy, Three freeze-thraw cycles (Kidney, 100 ng/mL): 111.17 ± 7.44
Accuracy, −80°C for 30 days (Kidney, 100 ng/mL): 103.22 ± 11.32
Accuracy, Ambient temperature for 4 h (Kidney, 2400 ng/mL): 100.55 ± 5.11
Accuracy, Three freeze-thraw cycles (Kidney, 2400 ng/mL): 100.45 ± 3.96
Accuracy, −80°C for 30 days (Kidney, 2400 ng/mL): 101.23 ± 4.69
Accuracy, Ambient temperature for 4 h (Liver, 2 ng/mL): 88.47 ± 6.93
Accuracy, Three freeze-thraw cycles (Liver, 2 ng/mL): 88.47 ± 7.22
Accuracy, −80°C for 30 days (Liver, 2 ng/mL): 87.43 ± 7.74
Accuracy, Ambient temperature for 4 h (Liver, 4 ng/mL): 86.27 ± 7.32
Accuracy, Three freeze-thraw cycles (Liver, 4 ng/mL): 86.00 ± 6.23
Accuracy, −80°C for 30 days (Liver, 4 ng/mL): 87.30 ± 4.35
Accuracy, Ambient temperature for 4 h (Liver, 100 ng/mL): 99.82 ± 2.89
Accuracy, Three freeze-thraw cycles (Liver, 100 ng/mL): 102.27 ± 4.97
Accuracy, −80°C for 30 days (Liver, 100 ng/mL): 87.13 ± 5.77
Accuracy, Ambient temperature for 4 h (Liver, 2400 ng/mL): 104.17 ± 2.14
Accuracy, Three freeze-thraw cycles (Liver, 2400 ng/mL): 99.98 ± 1.86
Accuracy, −80°C for 30 days (Liver, 2400 ng/mL): 87.02 ± 5.24
Accuracy, Ambient temperature for 4 h (Lung, 2 ng/mL): 103.27 ± 8.01
Accuracy, Three freeze-thraw cycles (Lung, 2 ng/mL): 112.93 ± 9.57
Accuracy, −80°C for 30 days (Lung, 2 ng/mL): 113.77 ± 9.20
Accuracy, Ambient temperature for 4 h (Lung, 4 ng/mL): 101.83 ± 6.41
Accuracy, Three freeze-thraw cycles (Lung, 4 ng/mL): 100.07 ± 10.39
Accuracy, −80°C for 30 days (Lung, 4 ng/mL): 98.77 ± 6.15
Accuracy, Ambient temperature for 4 h (Lung, 100 ng/mL): 111.50 ± 5.47
Accuracy, Three freeze-thraw cycles (Lung, 100 ng/mL): 110.17 ± 7.14
Accuracy, −80°C for 30 days (Lung, 100 ng/mL): 110.03 ± 9.33
Accuracy, Ambient temperature for 4 h (Lung, 2400 ng/mL): 100.67 ± 10.17
Accuracy, Three freeze-thraw cycles (Lung, 2400 ng/mL): 104.88 ± 8.23
Accuracy, −80°C for 30 days (Lung, 2400 ng/mL): 110.17 ± 4.54
Accuracy, Ambient temperature for 4 h (Plasma, 2 ng/mL): 101.68 ± 8.39
Accuracy, Three freeze-thraw cycles (Plasma, 2 ng/mL): 101.23 ± 12.44
Accuracy, −80°C for 30 days (Plasma, 2 ng/mL): 93.35 ± 10.78
Accuracy, Ambient temperature for 4 h (Plasma, 4 ng/mL): 86.78 ± 6.16
Accuracy, Three freeze-thraw cycles (Plasma, 4 ng/mL): 95.02 ± 5.39
Accuracy, −80°C for 30 days (Plasma, 4 ng/mL): 98.92 ± 12.32
Accuracy, Ambient temperature for 4 h (Plasma, 100 ng/mL): 112.33 ± 3.72
Accuracy, Three freeze-thraw cycles (Plasma, 100 ng/mL): 100.68 ± 6.22
Accuracy, −80°C for 30 days (Plasma, 100 ng/mL): 113.17 ± 4.96
Accuracy, Ambient temperature for 4 h (Plasma, 2400 ng/mL): 98.40 ± 5.56
Accuracy, Three freeze-thraw cycles (Plasma, 2400 ng/mL): 91.98 ± 4.75
Accuracy, −80°C for 30 days (Plasma, 2400 ng/mL): 112.67 ± 7.58
Accuracy, Ambient temperature for 4 h (Small intestine, 2 ng/mL): 105.00 ± 8.20
Accuracy, Three freeze-thraw cycles (Small intestine, 2 ng/mL): 103.90 ± 4.49
Accuracy, −80°C for 30 days (Small intestine, 2 ng/mL): 101.42 ± 7.82
Accuracy, Ambient temperature for 4 h (Small intestine, 4 ng/mL): 91.73 ± 4.49
Accuracy, Three freeze-thraw cycles (Small intestine, 4 ng/mL): 99.78 ± 7.70
Accuracy, −80°C for 30 days (Small intestine, 4 ng/mL): 106.70 ± 5.43
Accuracy, Ambient temperature for 4 h (Small intestine, 100 ng/mL): 95.90 ± 12.31
Accuracy, Three freeze-thraw cycles (Small intestine, 100 ng/mL): 100.93 ± 12.33
Accuracy, −80°C for 30 days (Small intestine, 100 ng/mL): 99.07 ± 12.41
Accuracy, Ambient temperature for 4 h (Small intestine, 2400 ng/mL): 112.00 ± 5.37
Accuracy, Three freeze-thraw cycles (Small intestine, 2400 ng/mL): 111.67 ± 6.12
Accuracy, −80°C for 30 days (Small intestine, 2400 ng/mL): 110.83 ± 6.68
Accuracy, Ambient temperature for 4 h (Spleen, 2 ng/mL): 97.62 ± 8.11
Accuracy, Three freeze-thraw cycles (Spleen, 2 ng/mL): 105.55 ± 7.56
Accuracy, −80°C for 30 days (Spleen, 2 ng/mL): 109.70 ± 13.05
Accuracy, Ambient temperature for 4 h (Spleen, 4 ng/mL): 105.82 ± 9.91
Accuracy, Three freeze-thraw cycles (Spleen, 4 ng/mL): 103.68 ± 9.71
Accuracy, −80°C for 30 days (Spleen, 4 ng/mL): 98.88 ± 4.16
Accuracy, Ambient temperature for 4 h (Spleen, 100 ng/mL): 112.00 ± 7.82
Accuracy, Three freeze-thraw cycles (Spleen, 100 ng/mL): 106.82 ± 6.88
Accuracy, −80°C for 30 days (Spleen, 100 ng/mL): 111.17 ± 7.17
Accuracy, Ambient temperature for 4 h (Spleen, 2400 ng/mL): 101.52 ± 7.73
Accuracy, Three freeze-thraw cycles (Spleen, 2400 ng/mL): 106.67 ± 5.43
Accuracy, −80°C for 30 days (Spleen, 2400 ng/mL): 104.73 ± 7.04
Accuracy, Ambient temperature for 4 h (Stomach, 2 ng/mL): 113.08 ± 11.06
Accuracy, Three freeze-thraw cycles (Stomach, 2 ng/mL): 113.58 ± 8.22
Accuracy, −80°C for 30 days (Stomach, 2 ng/mL): 109.08 ± 9.97
Accuracy, Ambient temperature for 4 h (Stomach, 4 ng/mL): 102.70 ± 10.17
Accuracy, Three freeze-thraw cycles (Stomach, 4 ng/mL): 98.87 ± 9.82
Accuracy, −80°C for 30 days (Stomach, 4 ng/mL): 89.87 ± 7.04
Accuracy, Ambient temperature for 4 h (Stomach, 100 ng/mL): 93.75 ± 8.65
Accuracy, Three freeze-thraw cycles (Stomach, 100 ng/mL): 93.47 ± 6.76
Accuracy, −80°C for 30 days (Stomach, 100 ng/mL): 107.33 ± 5.89
Accuracy, Ambient temperature for 4 h (Stomach, 2400 ng/mL): 107.17 ± 8.68
Accuracy, Three freeze-thraw cycles (Stomach, 2400 ng/mL): 100.23 ± 4.63
Accuracy, −80°C for 30 days (Stomach, 2400 ng/mL): 99.73 ± 10.09

Source: publication PMC9797307, “Measurement of Pharmacokinetics and Tissue Distribution of Four Compounds from Nauclea officinalis in Rat Plasma and Tissues through HPLC-MS/MS” (Journal of Analytical Methods in Chemistry, 2022)
